{"source": "patent US8252524B2", "about": "“Method of screening pharmaceutical compositions that promote nuclear transfer of Cdc42 protein” (Kowa Company, Ltd., priority 2004, dated 2012)", "key": {"Cdc42 protein": {"test_system": "Cdc42 protein", "assay": "Nuclear transfer of GFP/Cdc42 fusion protein in transformed HUVEC observed by fluorescence microscopy", "type": "cell-based", "conditions": "HUVEC expressing GFP/Cdc42 fusion protein; 1 μM final concentration; 15 hours culture; nuclei confirmed by Hoechst staining", "procedure": "The present inventors measured the behavior of Cdc42 protein in HUVEC with an HMG-CoA reductase inhibitor, particularly pitavastatin. For this measurement, a gene encoding a Cdc42/fluorescence protein GFP fusion protein was introduced into HUVEC to prepare a transformed cell expressing a GFP/Cdc42 fusion protein. This transformed cell was cultured, and the state of Cdc42 distributed in the cell in the presence or absence of pitavastatin was examined by observing the fluorescence of GFP. A gene encoding the whole area of a Cdc42 translation region was introduced into a predetermined position of a commercial plasmid pEGFP-C1 for preparation of a fusion protein consisting of GFP and a desired protein, to construct a plasmid comprising the GFP-Cdc42 gene. After […] were put to a 6-well plate and then cultured overnight in EGM-2 medium. Using Fugene 6, the plasmid construct DNA prepared above was added in an amount of 0.8 μg/well to the cells. The cells were further cultured for 21 hours in EGM-2 medium, and then the fluorescence of GFP was observed under a fluorescence microscope. […] And then the cells were subjected to stationary culture for 15 hours, fixed onto a prepared slide and observed under a fluorescence microscope. […]"}, "[1]": {"test_system": "vascular endothelial cells", "conditions": "cited from earlier work"}}, "data": [{"smiles": "O=C(O)C[C@H](O)C[C@H](O)/C=C/c1c(C2CC2)nc2ccccc2c1-c1ccc(F)cc1", "note": "[pitavastatin, (3R,5S,6E)-7-[2-cylopropyl-4-(4-fluorophenyl)-3-quinolyl]-3,5-dihydroxy-6-heptenoic acid]", "values": [{"measurement": "Distribution of GFP-Cdc42 in the cell (transfer into the nucleus)", "setting": "Cdc42 protein", "result": "GFP-Cdc42 is transferred to a nucleus"}, {"measurement": "Expression of NO synthase and thrombomodulin", "setting": "[1]", "result": "promotes expression of NO synthase"}, {"measurement": "Expression of PTX3", "setting": "[1]", "result": "suppresses expression of PTX3"}, {"measurement": "Expression of inflammatory cytokine IL-8 or MCP-1, endothelin and PAI-1", "setting": "[1]", "result": "suppresses expression of inflammatory cytokine IL-8 or MCP-1, expression of endothelin and expression of PAI-1"}]}]}
